17 molecules from patent US20220380318A1, “SUBSTITUTED SULFONYL AMIDES FOR CONTROLLING ANIMAL PESTS” (Bayer Aktiengesellschaft, priority 2019, published 2022) can be followed below.

Assay type in all cases: in vivo
One assay relates to Heterodera pallida. Nature of the assay: Heterodera pallida - soil mixing test (HETDPA). The conditions noted are these: Globodera pallida, 1008 h, cysts on potato roots after six weeks, Abbott formula, read-out: % Efficacy. As to the method:
Heterodera pallida-Soil Mixing Test ([…]) Solvent: 4 parts by weight of acetone Emulsifier: 1 part by weight of alkylaryl polyglycol ether To produce a suitable preparation of active ingredient, 1 part by weight of active ingredient is mixed with the stated amounts of solvent and emulsifier, and the concentrate is diluted with water to the desired concentration. This active ingredient formulation is mixed with soil (loamy sand). The stated concentration refers to the amount of active ingredient per volume unit of soil (ppm=mg/l). 40 cysts of the white potato nematode (Heterodera pallida, 250-275 larvae/cysts) are introduced into 500 ml of this active ingredient soil and mixed. The mixture is introduced into pots and planted in each case with a one-week-old potato seedling (Solanum tuberosum). After six weeks, the potato roots are checked for cysts and the average number per pot is calculated as efficacy by the Abbott formula: [formula] B=treated plants K=untreated control plants

The subject of assay [1] is Meloidogyne incognita. The assay can be described thus: Meloidogyne incognita test (soil drench, gall formation after 21 days). The following applies: 504 h, lettuce, read-out: nematicidal efficacy in % (formation of galls); for pest or weed control at 0.125 ppm: application rate 0.125 ppm; for pest or weed control at 0.25 ppm: application rate 0.25 ppm; for pest or weed control at 1 ppm: application rate 1 ppm. As to the method:
(§1) Meloidogyne incognita Test Solvent: 7 parts by weight of dimethylformamide Emulsifier: 2.5 parts by weight of alkylaryl polyglycol ether To produce a suitable active ingredient formulation, 1 part by weight of active ingredient is mixed with the specified amounts of solvent and emulsifier, and the concentrate is diluted with water to the desired concentration, it being necessary to take account of the volume of soil which is drenched. It should be ensured that a concentration of 20 ppm of emulsifier in the soil is not exceeded. To produce further test concentrations, water is used for dilution. Pots filled with soil (loamy sand) are watered with the active ingredient solution. An egg/larvae suspension of the southern root-knot nematode (Meloidogyne incognita) is added, lettuce seeds are scattered over the surface of the soil, and they are covered over with quartz sand. The lettuce seeds germinate and the plants develop. The galls develop on the roots. After 21 days, the nematicidal efficacy in % is determined by the formation of galls. 100% means that no galls have been found; 0% means that the number of galls on the treated plants corresponds to the untreated control.

The subject of assay [2] is Meloidogyne incognita. The assay can be described thus: Meloidogyne incognita test (sand, acetone formulation, gall formation after 14 days). The following applies: 336 h, application rate 4 ppm, lettuce in sand, read-out: nematicidal efficacy in % (formation of galls). As for the experimental part: Meloidouyne incognita Test Solvent: 125.0 parts by weight of acetone To produce an appropriate active ingredient formulation, 1 part by weight of active ingredient is mixed with the stated amount of solvent and the concentrate is diluted to the desired concentration with water. Vessels are filled with sand, active ingredient solution, an egg/larvae suspension of the southern root-knot nematode (Meloidogyne incognita) and lettuce seeds. The lettuce seeds germinate and the plants develop. The galls develop on the roots. After 14 days, the nematicidal efficacy in % is determined by the formation of galls. 100% means that no galls were found; 0% means that the number of galls on the treated plants corresponds to the untreated control.

Assay [3] has as its system Meloidogyne incognita. Nature of the assay: Meloidogyne incognita test (MELGIN), comparison with prior art. The conditions noted are these: 504 h, after 21 days. As for the experimental part: as §1, with “Test (MELGIN)” for “Test”

The structures appear in SMILES notation.

As for `COc1ccc(Cl)c(S(=O)(=O)NC(=O)c2nc(Cl)n([C@H]3C[C@@H]3C(F)(F)F)c2Br)c1` (racemic) [I-01], in the assay on Heterodera pallida, the Emax at 0.25 ppm stood at 75%, the Emax at 0.5 ppm stood at 90% and the Emax at 1 ppm worked out at 100%. Moreover, in the assay on Meloidogyne incognita [1], the pest or weed control at 0.125 ppm is 90%, the pest or weed control at 0.25 ppm was found to be 97% and the pest or weed control at 1 ppm was determined as 100%. Also, the pest or weed control at 4 ppm with Meloidogyne incognita [2] turned out to be 100%. Moreover, the Emax at 0.015625 ppm in the assay with Meloidogyne incognita [3] (read-out: % Efficacy) worked out at 58.3%. Moreover, the nematicidal efficacy (% gall reduction) at 0.03125 ppm in the assay on Meloidogyne incognita [3] was found to be 95%.

With `O=C(NS(=O)(=O)c1cc(Cl)ccc1Cl)c1nc(Cl)n([C@H]2C[C@@H]2C(F)(F)F)c1Br` (racemic) [I-02], in the assay on Meloidogyne incognita [1], the pest or weed control at 0.125 ppm worked out at 90%, the pest or weed control at 0.25 ppm was found to be 90% and the pest or weed control at 1 ppm stood at 100%. The pest or weed control at 4 ppm in the assay with Meloidogyne incognita [2] is 100%.

For the molecule `Cc1ccccc1S(=O)(=O)NC(=O)c1nc(Cl)n([C@H]2C[C@@H]2C(F)(F)F)c1Br` (racemic) [I-03], in the assay with Meloidogyne incognita [1], the pest or weed control at 0.125 ppm is 90%, the pest or weed control at 0.25 ppm is 100% and the pest or weed control at 1 ppm turned out to be 100%. In the assay on Meloidogyne incognita [2], the pest or weed control at 4 ppm was found to be 100%.

Turning to `CCOc1ccc(Cl)c(S(=O)(=O)NC(=O)c2nc(Cl)n([C@H]3C[C@@H]3C(F)(F)F)c2Br)c1` (racemic) [I-04], in the assay with Meloidogyne incognita [1], the pest or weed control at 0.125 ppm worked out at 90%, the pest or weed control at 0.25 ppm stood at 100% and the pest or weed control at 1 ppm was 100%. Further, the pest or weed control at 4 ppm with Meloidogyne incognita [2] was found to be 100%. Moreover, in the assay with Meloidogyne incognita [3], the nematicidal efficacy (% gall reduction) at 0.03125 ppm is 97%.

In the case of `COc1ccc(Br)c(S(=O)(=O)NC(=O)c2nc(Cl)n([C@H]3C[C@@H]3C(F)(F)F)c2Br)c1` (racemic) [I-05], in the assay on Meloidogyne incognita [1], the pest or weed control at 0.125 ppm was determined as 100%, the pest or weed control at 0.25 ppm came out at 100% and the pest or weed control at 1 ppm amounted to 100%. Besides, the pest or weed control at 4 ppm with Meloidogyne incognita [2] is 100%.

Regarding `COc1ccc(Cl)c(S(=O)(=O)NC(=O)c2nc(Br)n([C@H]3C[C@@H]3C(F)(F)F)c2Br)c1` (racemic) [I-06], in the assay with Meloidogyne incognita [1], the pest or weed control at 0.125 ppm amounted to 100%, the pest or weed control at 0.25 ppm stood at 100% and the pest or weed control at 1 ppm was found to be 100%. In the assay on Meloidogyne incognita [2], the pest or weed control at 4 ppm stood at 100%. Besides, the Emax at 0.015625 ppm in the assay on Meloidogyne incognita [3] (read-out: % Efficacy) worked out at 65%. The molecule further returned a nematicidal efficacy (% gall reduction) at 0.03125 ppm in the assay with Meloidogyne incognita [3] of 92.5%.

As for `COc1ccc(Br)c(S(=O)(=O)NC(=O)c2nc(Br)n([C@H]3C[C@@H]3C(F)(F)F)c2Br)c1` (racemic) [I-07], in the assay on Meloidogyne incognita [1], the pest or weed control at 0.125 ppm came out at 100%, the pest or weed control at 0.25 ppm turned out to be 100% and the pest or weed control at 1 ppm amounted to 100%. In the assay on Meloidogyne incognita [2], the pest or weed control at 4 ppm is 100%. Moreover, in the assay on Meloidogyne incognita [3] (read-out: % Efficacy), the Emax at 0.03125 ppm came out at 90%. Besides, in the assay with Meloidogyne incognita [3] (0.0625 ppm), the nematicidal efficacy (% gall reduction) at 0.0625 ppm is 100%. The same molecule registered a nematicidal efficacy (% gall reduction) at 0.125 ppm in the assay on Meloidogyne incognita [3] of 100%.

As for `Cc1ccccc1S(=O)(=O)NC(=O)c1nc(Br)n([C@H]2C[C@@H]2C(F)(F)F)c1Br` (racemic) [I-08], in the assay on Meloidogyne incognita [1], the pest or weed control at 0.25 ppm was found to be 100% and the pest or weed control at 1 ppm is 100%. The pest or weed control at 4 ppm in the assay with Meloidogyne incognita [2] was found to be 100%.

On to `CCOc1ccc(Cl)c(S(=O)(=O)NC(=O)c2nc(Br)n([C@H]3C[C@@H]3C(F)(F)F)c2Br)c1` (racemic) [I-09], for which, in the assay on Meloidogyne incognita [1], the pest or weed control at 0.125 ppm was found to be 90%, the pest or weed control at 0.25 ppm is 100% and the pest or weed control at 1 ppm turned out to be 100%. Further, the pest or weed control at 4 ppm in the assay on Meloidogyne incognita [2] turned out to be 100%.

For `O=C(NS(=O)(=O)c1cc(OCC(F)F)ccc1Cl)c1nc(Br)n([C@@H]2C[C@H]2C(F)(F)F)c1Br` (racemic) [I-10], the pest or weed control at 0.125 ppm with Meloidogyne incognita [1] stood at 100%. Also, the pest or weed control at 4 ppm in the assay on Meloidogyne incognita [2] is 100%.

For `O=C(NS(=O)(=O)c1cc(OCC(F)F)ccc1Cl)c1nc(Cl)n([C@@H]2C[C@H]2C(F)(F)F)c1Br` (racemic) [I-11], in the assay on Meloidogyne incognita [1], the pest or weed control at 0.125 ppm was determined as 98%. The pest or weed control at 4 ppm in the assay with Meloidogyne incognita [2] is 100%.

With `COc1ccc(Cl)c(S(=O)(=O)NC(=O)c2nc(Br)n([C@H]3C[C@@H]3C(F)(F)F)c2Cl)c1` (racemic) [I-12], the pest or weed control at 0.125 ppm in the assay on Meloidogyne incognita [1] is 100%. In the assay with Meloidogyne incognita [2], the pest or weed control at 4 ppm was 100%. Also, the nematicidal efficacy (% gall reduction) at 0.125 ppm with Meloidogyne incognita [3] is 100%.

Regarding `O=C(NS(=O)(=O)c1ccccc1Cl)c1nc(Br)n([C@@H]2C[C@H]2C(F)(F)F)c1Cl` (racemic) [I-13], in the assay with Meloidogyne incognita [1], the pest or weed control at 1 ppm amounted to 80%. Besides, the pest or weed control at 4 ppm in the assay with Meloidogyne incognita [2] was 100%. The same molecule came in with a nematicidal efficacy (% gall reduction) at 0.5 ppm in the assay with Meloidogyne incognita [3] of 70%.

Consider `O=C(NS(=O)(=O)c1ccccc1Cl)c1nc(Br)n(CCC(F)(F)F)c1Cl` [Ex. I-440, reference compound], for which, in the assay on Meloidogyne incognita [3], the nematicidal efficacy (% gall reduction) at 0.125 ppm is 0% and the nematicidal efficacy (% gall reduction) at 0.5 ppm stood at 0%.

In the assay on Meloidogyne incognita [3], `CCOc1ccc(Cl)c(S(=O)(=O)NC(=O)c2nc(Cl)n([C@@H]3C[C@H]3C(F)(F)F)c2Cl)c1` [Ex. I-459, reference compound] yielded a nematicidal efficacy (% gall reduction) at 0.03125 ppm of 10%.

On to `COc1ccc(Br)c(S(=O)(=O)NC(=O)c2nc(Cl)n([C@@H]3C[C@H]3C(F)(F)F)c2Cl)c1` [Ex. I-465, reference compound], for which, in the assay on Meloidogyne incognita [3] (read-out: % Efficacy), the Emax at 0.03125 ppm was 0%. Besides, the Emax at 0.0625 ppm with Meloidogyne incognita [3] (0.0625 ppm, read-out: % Efficacy) came to 25%. The nematicidal efficacy (% gall reduction) at 0.125 ppm with Meloidogyne incognita [3] came out at 95%.

`COc1ccc(Cl)c(S(=O)(=O)NC(=O)c2nc(Cl)n([C@@H]3C[C@H]3C(F)(F)F)c2Cl)c1` [Ex. I-470, reference compound]: in the assay with Heterodera pallida, the Emax at 0.25 ppm is 0%, the Emax at 0.5 ppm is 0% and the Emax at 1 ppm amounted to 70%. For the same molecule, the Emax at 0.015625 ppm with Meloidogyne incognita [3] (read-out: % Efficacy) was found to be 0%. In the assay on Meloidogyne incognita [3], the nematicidal efficacy (% gall reduction) at 0.03125 ppm came to 48%.
